{
  "source": "patent US20220184220A1",
  "about": "“XYLOGLUCAN-CONTAINING PRODRUGS AND METHODS OF MANUFACTURE AND USE THEREOF” (priority 2019, published 2022)",
  "key": {"[1]": {"experiment": "Dissolution of steroid in sterile water for gavage", "format": "physicochemical", "conditions": "dose in 100 μL gavage volume", "experimental": "The average weight of the mice (27.9 g) was calculated on the second day of the Citrobacter rodentium infection, and this average weight was used to calculate the steroid concentrations for all treatments. The steroids were dissolved as best as possible in sterile water, and stored at 4° C. until needed. Steroids were administered by gavage in […] for 3 consecutive days at the same time each morning (24 hrs between treatments) for the final 3 days of the C. rodentium infection. Mice in the control groups (without drug intervention) received water by gavage in 100 μL volumes. Gavage needles for drug administration were coated in sucrose solution (1 g/mL, syringe-filter sterilized) as a refinement procedure."}, "[2]": {"tested_on": "acute self-limiting colitis in mice", "experiment": "Histological scoring of inflammation, C. rodentium colitis in mice with normal enteric microbiota (Example 7)", "format": "in vivo", "conditions": "CR+/BO+ mice; prednisolone forms 1 mg/kg, dexamethasone forms 1.5 mg/kg (equivalent); one day following steroid treatment", "experimental": "Approval to conduct this project was obtained from the AAFC LeRDC Animal Care Committee (Animal Use Protocol 1911). […] The methods employed were essentially the same as those described in Example 3, except that the Citrobacter rodentium (CR) was administered to incite acute self-limiting colitis in mice prior to colonization with Bacteroides ovatus (BO). […] FIG. 20 provides a schematic illustrating the study design and timelines.\nAs in the study described in Example 3, there were gross histopathological differences in the distal colon tissue obtained from mice in the different treatment groups. Histological scoring of inflammation was performed by a board-certified pathologist blinded to treatment. […] Following CR infection, with no treatment, neutrophil infiltration was evident and the histological score was 10. […] Evidence of enhanced amelioration of protein markers of inflammation were also observed. […] IL-12p70 is a pro-inflammatory cytokine involved in cell-mediated immunity. For example, it is known as a T cell-stimulating factor, which can stimulate the growth and function of T cells. Moreover, it stimulates the production of interferon-gamma (IFN-γ) and tumor necrosis factor-alpha (TNF-α) from T cells and natural killer (NK) cells, and reduces IL-4 mediated suppression of IFN-γ."}, "[3]": {"tested_on": "acute self-limiting colitis in mice", "experiment": "Histological scoring of inflammation, C. rodentium colitis in germ-free mice colonized with B. ovatus (Example 3)", "format": "in vivo", "conditions": "n=2; for Crypt Height / Epithelia Hyperplasia / Epithelial Injury / Fibrosis / Globlet cell / Inflamm / Mitotic Act.: gavage 3 days, prednisolone forms 1 mg/kg/day, dexamethasone forms 0.6 mg/kg/day; for Total Score: sum of each scoring category"}, "[4]": {"tested_on": "acute self-limiting colitis in mice", "experiment": "Gross visual observations of the murine abdomen (Example 3)", "format": "in vivo", "conditions": "necropsy after 3 days of steroid gavage", "text": "Under isoflurane anesthesia, mice were terminally bled by cardiac puncture and then humanely euthanized by cervical dislocation. All collected blood was separated into serum that was dedicated for steroid detection and optimization of steroid detection procedures. Following euthanasia, a midline laparotomy was made and gross observations of the abdominal regions were photo-documented. Approximately 1 cm sections of the cecum, and the most proximal and distal portions of the colon were divided for histological examination. Cecal and colonic tissues were flash frozen in liquid nitrogen for future immunological protein quantification. Digesta extracted from the colon was stored at −80° C. for future steroid detection, and fresh feces from the cages were used to enumerate Bacteroides ovatus and Citrobacter rodentium by microbiological techniques on the same day as the necropsy."}},
  "note": "Entries after “also recorded” stand apart in the source; their conditions may differ.",
  "data": [
    {"molecule": "C[C@]12C=CC(=O)C=C1CC[C@@H]1[C@@H]2[C@@H](O)C[C@@]2(C)[C@H]1CC[C@]2(O)C(=O)CO", "note": "[prednisolone, reference compound]", "values": [
      {"measurement": "dissolution in water", "setting": "[1]", "value": "did not fully dissolve in water"},
      {"measurement": "histological score, distal colon", "setting": "[2]", "value": 18},
      {"measurement": "Crypt Height", "setting": "[3]; cecal tissue", "value": 1.5},
      {"measurement": "Epithelia Hyperplasia", "setting": "[3]; cecal tissue", "value": 1.5},
      {"measurement": "Epithelial Injury", "setting": "[3]; cecal tissue", "value": 1},
      {"measurement": "Fibrosis", "setting": "[3]; cecal tissue", "value": 1},
      {"measurement": "Globlet cell", "setting": "[3]; cecal tissue", "value": 0.5},
      {"measurement": "Inflamm", "setting": "[3]; cecal tissue", "value": 1.5},
      {"measurement": "Mitotic Act.", "setting": "[3]; cecal tissue", "value": 1},
      {"measurement": "Total Score", "setting": "[3]; cecal tissue", "value": 8},
      {"measurement": "Crypt Height", "setting": "[3]; distal colon", "value": 1.5},
      {"measurement": "Epithelia Hyperplasia", "setting": "[3]; distal colon", "value": 1.5},
      {"measurement": "Epithelial Injury", "setting": "[3]; distal colon", "value": 2},
      {"measurement": "Fibrosis", "setting": "[3]; distal colon", "value": 1.5},
      {"measurement": "Globlet cell", "setting": "[3]; distal colon", "value": 0.5},
      {"measurement": "Inflamm", "setting": "[3]; distal colon", "value": 1.5},
      {"measurement": "Mitotic Act.", "setting": "[3]; distal colon", "value": 1.5},
      {"measurement": "Total Score", "setting": "[3]; distal colon", "value": 10},
      {"measurement": "Crypt Height", "setting": "[3]; proximal colon", "value": 2},
      {"measurement": "Epithelia Hyperplasia", "setting": "[3]; proximal colon", "value": 1.5},
      {"measurement": "Epithelial Injury", "setting": "[3]; proximal colon", "value": 2},
      {"measurement": "Fibrosis", "setting": "[3]; proximal colon", "value": 0},
      {"measurement": "Globlet cell", "setting": "[3]; proximal colon", "value": 0.5},
      {"measurement": "Inflamm", "setting": "[3]; proximal colon", "value": 1.5},
      {"measurement": "Mitotic Act.", "setting": "[3]; proximal colon", "value": 1.5},
      {"measurement": "Total Score", "setting": "[3]; proximal colon", "value": 9},
      {"measurement": "blood present in ceca (gross observation)", "setting": "[4]", "value": "more blood present in ceca than dexamethasone treatment; also recorded: more blood in cecal area"}
    ]}
  ]
}
